# Reference: the supplement of paper PMC10307832
# How the values were obtained:
# Assay in all cases: relative viability (nuclei count vs DMSO), 5 days (fraction); higher = more cells survive
# EHT 1864 + Lapatinib = compound: C1COCCN1CC2=CC(=O)C(=CO2)OCCCCCSC3=C4C=CC(=CC4=NC=C3)C(F)(F)F [EHT 1864] + CS(=O)(=O)CCNCc1ccc(-c2ccc3ncnc(Nc4ccc(OCc5cccc(F)c5)c(Cl)c4)c3c2)o1 [Lapatinib] (partner 2 µM)
# Summary of the method: (§1)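 Values are medians from duplicate plates. Each reflects relative viability, defined as the nuclei count of treated wells over that of vehicle wells. Lung cancer cell lines in 1536-well plates were pin-tool dosed one day after seeding with one drug alone or with a fixed anchor-drug dose plus five library-drug doses (not always all listed) in √10 steps, then fixed, stained and imaged at 4× after 5 days.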
# EHT 1864 + Bortezomib = compound: C1COCCN1CC2=CC(=O)C(=CO2)OCCCCCSC3=C4C=CC(=CC4=NC=C3)C(F)(F)F [EHT 1864] + CC(C)C[C@H](NC(=O)[C@H](Cc1ccccc1)NC(=O)c1cnccn1)B(O)O [Bortezomib] (partner 0.002 µM)
# Summary of the method: as §1
# EHT 1864 + Decitabine = compound: C1COCCN1CC2=CC(=O)C(=CO2)OCCCCCSC3=C4C=CC(=CC4=NC=C3)C(F)(F)F [EHT 1864] + Nc1ncn([C@H]2C[C@H](O)[C@@H](CO)O2)c(=O)n1 [Decitabine] (partner 2 µM)
# Summary of the method: as §1
# EHT 1864 + AZD7762 = compound: C1COCCN1CC2=CC(=O)C(=CO2)OCCCCCSC3=C4C=CC(=CC4=NC=C3)C(F)(F)F [EHT 1864] + NC(=O)Nc1cc(-c2cccc(F)c2)sc1C(=O)N[C@H]1CCCNC1 [AZD7762] (partner 0.2 µM)
# Summary of the method: as §1
Cell Line,relative viability (EHT 1864 + Lapatinib; first compound 0.04 µM),relative viability (EHT 1864 + Lapatinib; first compound 0.1265 µM),relative viability (EHT 1864 + Lapatinib; first compound 0.4 µM),relative viability (EHT 1864 + Lapatinib; first compound 1.265 µM),relative viability (EHT 1864 + Lapatinib; first compound 4 µM),relative viability (EHT 1864 + Bortezomib; first compound 0.04 µM),relative viability (EHT 1864 + Bortezomib; first compound 0.1265 µM),relative viability (EHT 1864 + Bortezomib; first compound 0.4 µM),relative viability (EHT 1864 + Bortezomib; first compound 1.265 µM),relative viability (EHT 1864 + Bortezomib; first compound 4 µM),relative viability (EHT 1864 + Decitabine; first compound 0.04 µM),relative viability (EHT 1864 + Decitabine; first compound 0.1265 µM),relative viability (EHT 1864 + Decitabine; first compound 0.4 µM),relative viability (EHT 1864 + Decitabine; first compound 1.265 µM),relative viability (EHT 1864 + Decitabine; first compound 4 µM),relative viability (EHT 1864 + AZD7762; first compound 0.04 µM),relative viability (EHT 1864 + AZD7762; first compound 0.1265 µM),relative viability (EHT 1864 + AZD7762; first compound 0.4 µM),relative viability (EHT 1864 + AZD7762; first compound 1.265 µM),relative viability (EHT 1864 + AZD7762; first compound 4 µM)
NCI-H322M,0.613,0.527,0.634,0.522,0.629,1.22,1.2,1.23,1.27,1.25,0.659,0.692,0.698,0.679,0.724,0.601,0.501,0.589,0.577,0.667
NCI-H460,0.891,0.897,0.975,0.845,0.885,1.01,1.1,0.993,0.994,0.905,–,0.405,0.495,0.43,0.255,0.642,0.541,0.635,0.436,0.568
NCI-H596,1.16,0.968,1.12,1.01,1.09,0.836,0.637,0.976,1.01,1.05,0.937,1.05,1.14,1.09,1.24,1.21,1.04,1.1,1.04,1.46
NCI-H647,0.856,0.842,0.923,0.957,1.14,0.808,0.753,0.954,0.934,1.04,0.32,0.288,0.311,0.453,0.404,0.621,0.296,0.661,0.44,0.461
NCI-H650,0.797,–,1.33,1.07,0.989,0.911,–,0.862,0.827,0.914,0.372,0.312,0.356,0.356,0.34,0.994,0.612,1.13,1.1,1.06
NCI-H727,0.841,0.743,0.635,–,0.881,0.92,0.973,0.848,–,1.12,0.98,0.639,0.85,0.811,0.914,0.579,0.693,0.587,0.555,0.794
NCI-H838,0.91,0.799,0.979,0.938,0.932,0.873,0.47,0.778,0.906,0.614,0.472,0.438,0.442,0.445,0.431,0.959,0.895,0.886,0.872,0.959
NCI-H1355,1.02,0.819,0.889,1.02,1.04,1.32,0.908,1.12,1.32,1.24,0.391,0.326,0.355,0.369,0.328,0.876,0.65,0.725,0.688,0.68
